From patent US10913712B2, “Tetracycline compounds” (Tetraphase Pharmaceuticals, Inc., priority 2012, dated 2021) come the findings set out here.

The structures appear in SMILES notation. Converted amounts (≈) assume the structure as drawn.

The test system of the assay is Burkholderia cenocepacia BC240 (cystic fibrosis isolate, MDR). Description: MIC assay. Type of assay: cell-based. The following applies: Table 6; control compounds.

For the molecule `CN(C)c1cc(NC(=O)CNC(C)(C)C)c(O)c2c1C[C@H]1C[C@H]3[C@H](N(C)C)C(O)=C(C(N)=O)C(=O)[C@@]3(O)C(O)=C1C2=O` [Tigecycline, tigecycline], the “MIC BC 240” value turned out to be 16 µg/mL (≈ 27.3 µM).

Consider `CN(C)[C@@H]1C(O)=C(C(N)=O)C(=O)[C@@]2(O)C(O)=C3C(=O)c4c(O)cccc4C[C@H]3C[C@@H]12` [Sancycline, sancycline], for which the “MIC BC 240” value was found to be 4 µg/mL (≈ 9.65 µM).
